{
  "source": "PubChem BioAssay (NCI)",
  "assay_in_all_cases": "growth of human tumour cells (NCI), 48 h",
  "key": {"786-0 renal": {"test_system": "786-0 renal"}, "A498 renal": {"test_system": "A498 renal"}, "A549 NSCLC": {"test_system": "A549 NSCLC"}, "ACHN renal": {"test_system": "ACHN renal"}, "BT-549 breast": {"test_system": "BT-549 breast"}, "CAKI-1 renal": {"test_system": "CAKI-1 renal"}, "CCRF-CEM leukemia": {"test_system": "CCRF-CEM leukemia"}, "COLO 205 colon": {"test_system": "COLO 205 colon"}, "DU-145 prostate": {"test_system": "DU-145 prostate"}, "EKVX NSCLC": {"test_system": "EKVX NSCLC"}, "HCC-2998 colon": {"test_system": "HCC-2998 colon"}, "HCT-116 colon": {"test_system": "HCT-116 colon"}, "HCT-15 colon": {"test_system": "HCT-15 colon"}, "HL-60(TB) leukemia": {"test_system": "HL-60(TB) leukemia"}, "HOP-62 NSCLC": {"test_system": "HOP-62 NSCLC"}, "HOP-92 NSCLC": {"test_system": "HOP-92 NSCLC"}, "HS 578T breast": {"test_system": "HS 578T breast"}, "HT29 colon": {"test_system": "HT29 colon"}, "IGROV1 ovarian": {"test_system": "IGROV1 ovarian"}, "K-562 leukemia": {"test_system": "K-562 leukemia"}, "KM12 colon": {"test_system": "KM12 colon"}, "LOX IMVI melanoma": {"test_system": "LOX IMVI melanoma"}, "M14 melanoma": {"test_system": "M14 melanoma"}, "MALME-3M melanoma": {"test_system": "MALME-3M melanoma"}, "MCF7 breast": {"test_system": "MCF7 breast"}, "MDA-MB-231 breast": {"test_system": "MDA-MB-231 breast"}, "MDA-MB-435": {"test_system": "MDA-MB-435"}, "MOLT-4 leukemia": {"test_system": "MOLT-4 leukemia"}, "NCI-H226 lung": {"test_system": "NCI-H226 lung"}, "NCI-H23 lung": {"test_system": "NCI-H23 lung"}, "NCI-H460 lung": {"test_system": "NCI-H460 lung"}, "NCI-H522 lung": {"test_system": "NCI-H522 lung"}, "NCI/ADR-RES ovarian": {"test_system": "NCI/ADR-RES ovarian"}, "OVCAR-3 ovarian": {"test_system": "OVCAR-3 ovarian"}, "OVCAR-4 ovarian": {"test_system": "OVCAR-4 ovarian"}, "OVCAR-5 ovarian": {"test_system": "OVCAR-5 ovarian"}, "OVCAR-8 ovarian": {"test_system": "OVCAR-8 ovarian"}, "PC-3 prostate": {"test_system": "PC-3 prostate"}, "RPMI-8226 leukemia": {"test_system": "RPMI-8226 leukemia"}, "RXF 393 renal": {"test_system": "RXF 393 renal"}, "SF-268 CNS": {"test_system": "SF-268 CNS"}, "SF-295 CNS": {"test_system": "SF-295 CNS"}, "SF-539 CNS": {"test_system": "SF-539 CNS"}, "SK-MEL-2 melanoma": {"test_system": "SK-MEL-2 melanoma"}, "SK-MEL-28 melanoma": {"test_system": "SK-MEL-28 melanoma"}, "SK-MEL-5 melanoma": {"test_system": "SK-MEL-5 melanoma"}, "SK-OV-3 ovarian": {"test_system": "SK-OV-3 ovarian"}, "SN12C renal": {"test_system": "SN12C renal"}, "SNB-19 CNS": {"test_system": "SNB-19 CNS"}, "SNB-75 CNS": {"test_system": "SNB-75 CNS"}, "SR leukemia": {"test_system": "SR leukemia"}, "SW-620 colon": {"test_system": "SW-620 colon"}, "T-47D breast": {"test_system": "T-47D breast"}, "TK-10 renal": {"test_system": "TK-10 renal"}, "U251 CNS": {"test_system": "U251 CNS"}, "UACC-257 melanoma": {"test_system": "UACC-257 melanoma"}, "UACC-62 melanoma": {"test_system": "UACC-62 melanoma"}, "UO-31 renal": {"test_system": "UO-31 renal"}},
  "note": "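Each compound was tested at five concentrations against cells in 96-well plates for 48 hours. The concentration for full growth arrest is given as TGI.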",
  "data": [
    {"smiles": "O=C(O)c1c2c(cc3c1CC1(Cc4ccccc4C1=O)C3)CCC2", "note": "(stereo not drawn)", "values": [
      {"measurement": "TGI", "setting": "786-0 renal", "result": "> 100", "unit": "µM"},
      {"measurement": "TGI", "setting": "A498 renal", "result": 96, "unit": "µM"},
      {"measurement": "TGI", "setting": "A549 NSCLC", "result": "> 100", "unit": "µM"},
      {"measurement": "TGI", "setting": "ACHN renal", "result": "> 100", "unit": "µM"},
      {"measurement": "TGI", "setting": "BT-549 breast", "result": "> 93.4", "unit": "µM"},
      {"measurement": "TGI", "setting": "CAKI-1 renal", "result": "> 100", "unit": "µM"},
      {"measurement": "TGI", "setting": "CCRF-CEM leukemia", "result": 33.9, "unit": "µM"},
      {"measurement": "TGI", "setting": "COLO 205 colon", "result": 54.6, "unit": "µM"},
      {"measurement": "TGI", "setting": "DU-145 prostate", "result": "> 100", "unit": "µM"},
      {"measurement": "TGI", "setting": "EKVX NSCLC", "result": "> 100", "unit": "µM"},
      {"measurement": "TGI", "setting": "HCC-2998 colon", "result": 13.4, "unit": "µM"},
      {"measurement": "TGI", "setting": "HCT-116 colon", "result": "> 100", "unit": "µM"},
      {"measurement": "TGI", "setting": "HCT-15 colon", "result": "> 100", "unit": "µM"},
      {"measurement": "TGI", "setting": "HL-60(TB) leukemia", "result": 14.9, "unit": "µM"},
      {"measurement": "TGI", "setting": "HOP-62 NSCLC", "result": "> 100", "unit": "µM"},
      {"measurement": "TGI", "setting": "HOP-92 NSCLC", "result": "> 91.6", "unit": "µM"},
      {"measurement": "TGI", "setting": "HS 578T breast", "result": "> 100", "unit": "µM"},
      {"measurement": "TGI", "setting": "HT29 colon", "result": "> 69.7", "unit": "µM"},
      {"measurement": "TGI", "setting": "IGROV1 ovarian", "result": "> 100", "unit": "µM"},
      {"measurement": "TGI", "setting": "K-562 leukemia", "result": 33.6, "unit": "µM"},
      {"measurement": "TGI", "setting": "KM12 colon", "result": "> 100", "unit": "µM"},
      {"measurement": "TGI", "setting": "LOX IMVI melanoma", "result": "> 89.1", "unit": "µM"},
      {"measurement": "TGI", "setting": "M14 melanoma", "result": 70.7, "unit": "µM"},
      {"measurement": "TGI", "setting": "MALME-3M melanoma", "result": 76.6, "unit": "µM"},
      {"measurement": "TGI", "setting": "MCF7 breast", "result": "> 100", "unit": "µM"},
      {"measurement": "TGI", "setting": "MDA-MB-231 breast", "result": "> 100", "unit": "µM"},
      {"measurement": "TGI", "setting": "MDA-MB-435", "result": 16, "unit": "µM"},
      {"measurement": "TGI", "setting": "MOLT-4 leukemia", "result": 36, "unit": "µM"},
      {"measurement": "TGI", "setting": "NCI-H226 lung", "result": "> 85.8", "unit": "µM"},
      {"measurement": "TGI", "setting": "NCI-H23 lung", "result": "> 100", "unit": "µM"},
      {"measurement": "TGI", "setting": "NCI-H460 lung", "result": "> 100", "unit": "µM"},
      {"measurement": "TGI", "setting": "NCI-H522 lung", "result": 64.5, "unit": "µM"},
      {"measurement": "TGI", "setting": "NCI/ADR-RES ovarian", "result": "> 100", "unit": "µM"},
      {"measurement": "TGI", "setting": "OVCAR-3 ovarian", "result": "> 100", "unit": "µM"},
      {"measurement": "TGI", "setting": "OVCAR-4 ovarian", "result": "> 100", "unit": "µM"},
      {"measurement": "TGI", "setting": "OVCAR-5 ovarian", "result": "> 100", "unit": "µM"},
      {"measurement": "TGI", "setting": "OVCAR-8 ovarian", "result": "> 100", "unit": "µM"},
      {"measurement": "TGI", "setting": "PC-3 prostate", "result": "> 100", "unit": "µM"},
      {"measurement": "TGI", "setting": "RPMI-8226 leukemia", "result": 52.3, "unit": "µM"},
      {"measurement": "TGI", "setting": "RXF 393 renal", "result": "> 100", "unit": "µM"},
      {"measurement": "TGI", "setting": "SF-268 CNS", "result": "> 100", "unit": "µM"},
      {"measurement": "TGI", "setting": "SF-295 CNS", "result": "> 100", "unit": "µM"},
      {"measurement": "TGI", "setting": "SF-539 CNS", "result": "> 95.4", "unit": "µM"},
      {"measurement": "TGI", "setting": "SK-MEL-2 melanoma", "result": 55.1, "unit": "µM"},
      {"measurement": "TGI", "setting": "SK-MEL-28 melanoma", "result": "> 100", "unit": "µM"},
      {"measurement": "TGI", "setting": "SK-MEL-5 melanoma", "result": "> 65", "unit": "µM"},
      {"measurement": "TGI", "setting": "SK-OV-3 ovarian", "result": "> 100", "unit": "µM"},
      {"measurement": "TGI", "setting": "SN12C renal", "result": "> 100", "unit": "µM"},
      {"measurement": "TGI", "setting": "SNB-19 CNS", "result": "> 100", "unit": "µM"},
      {"measurement": "TGI", "setting": "SNB-75 CNS", "result": "> 94.6", "unit": "µM"},
      {"measurement": "TGI", "setting": "SR leukemia", "result": 9.56, "unit": "µM"},
      {"measurement": "TGI", "setting": "SW-620 colon", "result": "> 100", "unit": "µM"},
      {"measurement": "TGI", "setting": "T-47D breast", "result": "> 90.7", "unit": "µM"},
      {"measurement": "TGI", "setting": "TK-10 renal", "result": "> 100", "unit": "µM"},
      {"measurement": "TGI", "setting": "U251 CNS", "result": "> 100", "unit": "µM"},
      {"measurement": "TGI", "setting": "UACC-257 melanoma", "result": "> 100", "unit": "µM"},
      {"measurement": "TGI", "setting": "UACC-62 melanoma", "result": "> 100", "unit": "µM"},
      {"measurement": "TGI", "setting": "UO-31 renal", "result": "> 100", "unit": "µM"}
    ]}
  ]
}
